Measurements: patent US9932297B2, “Alkynes and methods of reacting alkynes with 1,3-dipole-functional compounds” (UNIVERSITY OF GEORGIA RESEARCH FOUNDATION, INC., priority 2007, dated 2018)

What was measured:
[1] = Cycloaddition with benzyl azide, second-order rate constant by 1H NMR; format: physicochemical; details: for second-order rate constant: NMR
Protocol: However, upon exposure to azides a fast reaction took place and gave the corresponding triazoles in high yield. For example, triazoles 10-13 were obtained in quantitative yields as mixtures of regioisomers by reaction of the corresponding azido-containing sugar and amino acid derivatives with 3 in methanol for 30 minutes (Scheme 2; FIG. 3 and FIG. 4). The progress of the reaction of 3 with benzyl azide in methanol and in a mixture of water/acetonitrile (1:4 v/v) was monitored by NMR spectroscopy by integration of the benzylic proton signals, and second-order rate constants of 0.17 and 2.3 m^−1s^−1, respectively, were determined.
A number of analogs (63-68) of 4-dibenzocyclooctynol (61) were prepared and the influence of these modifications on the reaction rate of the cycloaddition with benzyl azide was determined by integration of the benzylic proton signals in ^1H NMR spectrum.
General Method for Calculating Second Order Rate Constants by NMR.
Substrates were dissolved separately in the appropriate solvent and mixed 1:1 at 6 mM concentrations. Percent conversion was monitored both by disappearance of starting material and appearance of the two regioisomeric products as determined by integration at multiple chemical shifts. Second order rate constants for the reaction were determined by plotting the 1/[substrates] versus time and analysis by linear regression. Second order rate constants correspond to one half of the determined slope.

[2] = Shelf life and reactivity towards nucleophiles; format: physicochemical
[3] = system: Jurkat cells bearing azides (Ac4ManNAz-treated); test: Cell surface azide labeling and detection by fluorescence intensity (avidin-FITC); format: cell-based, Human
Protocol: FIG. 6 illustrates embodiments of cell-surface labeling with compounds 2 and 9. Jurkat cells grown for three days in the absence or presence of Ac4ManNAz (25 micromolar) were incubated a) with compounds 2 and 9 (30 micromolar) for 0-180 minutes or b) with compounds 2 and 9 (0-100 micromolar) for 1 hour at room temperature. Next, the cells were incubated with avidin-FITC for 15 minutes at 4° C., after which cell lysates were assessed for fluorescence intensity. Samples are indicated as follows: blank cells incubated with 2 (∘) or 9 (□), and Ac,ManNAz cells incubated with 2 (●) or 9 (▪).
Next, Jurkat cells were cultured in the presence of 25 micromolar N-azidoacetylmannosamine (Ac4ManNAz) for three days to metabolically introduce N-azidoacetylsialic acid (SiaNAz) moieties into glycoproteins (Luchansky and Bertozzi, Chem-BioChem 2004, 5:1706-1709). As a negative control, Jurkat cells were employed that were grown in the absence of Ac4ManNAz. The cells were exposed to a 30 micromolar solution of compound 9 for various time periods, and after washing, the cells were stained with avidin-fluorescein isothiocyanate (FITC) for 15 minutes at 4° C. The efficiency of the two-step cell-surface labeling was determined by measuring the fluorescence intensity of the cell lysates. […]

[4] = system: CHO cells bearing azides (Ac4ManNAz-treated); test: Cell labeling and detection by fluorescence (confocal) microscopy; format: cell-based, Chinese hamster
Protocol: FIG. 8 illustrates fluorescence images for embodiments of cells labeled with compound 9 and avidin-Alexa Fluor 488. CHO cells grown for 3 days in the absence (d-f) or presence (a-c) of Ac4ManNAz (100 micromolar) were incubated with compound 9 (30 micromolar) for 1 hour at 4° C. (a, d) or room temperature (b, c, e, f). Next, cells were incubated with avidin-Alexa Fluor 488 for 15 minutes at 4° C. and, after washing, fixing, and staining for the nucleus with far-red-fluorescent dye TO-PRO, imaged (a, b, d, e) or after washing incubated for 1 hour at 37° C. before fixing, nucleus staining, and imaging (c, f).
Next, attention was focused on visualizing azido-containing glycoconjugates of living cells by confocal microscopy. Thus, adherent Chinese hamster ovary (CHO) cells were cultured in the presence of Ac4ManNAz (100 micromolar) for three days. The resulting cell-surface azido moieties were treated with 9 (30 micromolar) for 1 hour and then with avidin-AlexaFluor488 for 15 minutes at 4° C.
Cell-surface glycoconjugates are constantly recycled by endocytosis, and to monitor this process, metabolically labeled cells were reacted with 9 and avidin-AlexaFluor488 according to the standard protocol and incubated at 37° C. for 1 hour before examination by confocal microscopy.
Chinese hamster ovary (CHO) cells (Clone K1; ATCC) were cultured in Kaighn's modification of Ham's F-12 medium (F-12K) with L-glutamine (2 mM), adjusted to contain sodium bicarbonate (1.5 g L^−1) and supplemented with penicillin (100 u mL^−1)/streptomycin (100 micrograms mL^−1 and FBS (10%). Cells were maintained in a humid 5% CO2 atmosphere at 37° C. CHO cells were grown in the presence of Ac4ManNaz (100 micromolar final concentration) for 3 days to metabolically incorporate SiaNAz into their cell surface glycoproteins. CHO cells bearing azides and untreated control cells were then transferred to a glass coverslip and cultured for 36 hours in their original medium. […] The step size, based on the calculated optimum for each objective, was between 0.25 and 0.5 micrometers. […]

[5] = Solubility seen in the labeling experiment; format: physicochemical; details: no increase in labeling above 100 micromolar
Protocol: The concentration dependence of the cell-surface labeling was studied by incubation of cells with various concentrations of 2 and 9 followed by staining with avidin-FTIC (FIG. 6b).

[6] = cycloaddition with benzyl azide

SMILES: OC1Cc2ccccc2C#Cc2ccccc21 (stereo not drawn) [Compound 3, 3-Hydroxy-7,8-didehydro-1,2:5,6-dibenzocyclooctene]
- rate constant compared with cyclooctyne 1 ([1]; acetonitrile/water): three orders of magnitude greater
- second-order rate constant ([1]; reaction with benzyl azide in methanol): 0.17 m^−1s^−1
- second-order rate constant ([1]; reaction with benzyl azide in water/acetonitrile (1:4 v/v)): 2.3 m^−1s^−1
- shelf life [2]: excellent, long shelf life
- reactivity with nucleophiles ([2]; thiols and amines): did not react with nucleophiles such as thiols and amines

SMILES: O=C(CCCCC1SCC2NC(=O)NC21)NCCOCCOCCNC(=O)OC1Cc2ccccc2C#Cc2ccccc21 (stereo not drawn) [Compound 9, Carbonic acid 7,8-didehydro-1,2:5,6-dibenzocyclooctene-3-yl ester, 8′-biotinylamine-3′,6′-dioxaoctane 1′-amide]
- incubation time after which labeling was almost complete ([3]; 30 micromolar, room temperature, then avidin-FITC): 60 min
- concentration at which reliable fluorescent labeling was achieved ([3]; 1 hour at room temperature): 3 µM
- labeling efficiency at ambient temperature versus 4° C. ([4]; 30 micromolar, 1 hour): equally efficient when performed at either ambient temperature or 4 °C
- location of staining ([4]; 30 micromolar, 1 hour, then avidin-AlexaFluor488): staining was observed only at the surface
- internalization of labeled glycoproteins ([4]; after labeling, incubated at 37° C. for 1 hour): a significant quantity of labeled glycoproteins had been internalized into vesicular compartments
- solubility [5]: limited solubility
- effect on cell viability (Jurkat cells; two-step labeling, morphology and exclusion of trypan blue): no effect on cell viability

SMILES: C1#Cc2ccccc2CCc2ccccc21 [Compound 62, reference compound]
- times slower reaction than 4-dibenzocyclooctynol (61) [1, 6]: approximately 70 times

SMILES: O=C1Cc2ccccc2C#Cc2ccccc21 [Compound 67, 6H-11,12-didehydro-dibenzo[a,e]cyclooctatrien-5-one]
- reaction rate compared with 61 (in words) [1, 6]: slightly higher reaction rate than 1

SMILES: [Cl][Cu] [Cu^ICl, reference compound]
- cell death (Jurkat cells): approximately 98%
